# Measurements as given in ChEMBL document CHEMBL1137415, “Structure-activity relationship of 6-methylidene penems bearing 6,5 bicyclic heterocycles as broad-spectrum beta-lactamase inhibitors: evidence for 1,4-thiazepine intermediates with C7 R stereochemistry by computational methods” (J Med Chem, 2006).
# Columns and labels:
# Enterobacter cloacae = test: Antibacterial activity against Enterobacter cloacae expressing P99; assay type: functional
# Klebsiella aerogenes [1] = test: Antibacterial activity against Enterobacter aerogenes expressing AmpC in iv dosed murine acute lethal infection model in presence of piperacillin; assay type: functional
# Beta-lactamase TEM = Beta-lactamase TEM (Escherichia coli, UniProt P62593); test: Inhibition of Escherichia coli TEM1
# Chain of Beta-lactamase TEM (P62593 whole entry): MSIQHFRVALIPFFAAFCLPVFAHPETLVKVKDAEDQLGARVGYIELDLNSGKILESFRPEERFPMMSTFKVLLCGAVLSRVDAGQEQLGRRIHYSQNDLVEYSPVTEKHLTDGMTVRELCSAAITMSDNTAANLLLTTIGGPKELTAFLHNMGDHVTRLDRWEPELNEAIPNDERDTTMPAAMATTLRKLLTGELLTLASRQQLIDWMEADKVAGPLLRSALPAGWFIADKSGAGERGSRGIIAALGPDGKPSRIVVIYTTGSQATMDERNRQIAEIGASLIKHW
# [2] = molecular target: Beta-lactamase TEM (Escherichia coli) (UniProt P62593); test: Antibacterial activity against Escherichia coli expressing TEM1; assay type: functional
# Chain of Beta-lactamase TEM (Escherichia coli) (P62593 whole entry): as above
# Escherichia coli [3] = test: Antibacterial activity against Escherichia coli expressing TEM1 in iv dosed murine acute lethal infection model in presence of piperacillin; assay type: functional
# Beta-lactamase = Beta-lactamase (Enterobacter cloacae, UniProt P05364)
# Chain of Beta-lactamase (P05364 whole entry): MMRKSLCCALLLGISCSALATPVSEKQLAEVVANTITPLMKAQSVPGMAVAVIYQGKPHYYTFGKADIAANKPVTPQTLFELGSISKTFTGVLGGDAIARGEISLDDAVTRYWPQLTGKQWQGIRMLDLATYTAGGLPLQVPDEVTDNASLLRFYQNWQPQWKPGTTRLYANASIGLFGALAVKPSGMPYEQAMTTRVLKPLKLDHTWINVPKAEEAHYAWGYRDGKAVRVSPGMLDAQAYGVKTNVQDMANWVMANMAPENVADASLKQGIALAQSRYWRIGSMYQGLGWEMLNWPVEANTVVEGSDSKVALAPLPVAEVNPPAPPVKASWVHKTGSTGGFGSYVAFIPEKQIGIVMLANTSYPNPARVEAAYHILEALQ
# Description: Inhibition of Enterobacter cloacae AmpC
# Pseudomonas aeruginosa = test: Antibacterial activity against Pseudomonas aeruginosa expressing AmpC; assay type: functional
# [4] = molecular target: T1, Imipenem-hydrolyzing beta-lactamase (Enterobacter cloacae, UniProt P52663); test: Inhibition of Enterobacter cloacae Imi1
# T1 sequence (P52663 whole entry): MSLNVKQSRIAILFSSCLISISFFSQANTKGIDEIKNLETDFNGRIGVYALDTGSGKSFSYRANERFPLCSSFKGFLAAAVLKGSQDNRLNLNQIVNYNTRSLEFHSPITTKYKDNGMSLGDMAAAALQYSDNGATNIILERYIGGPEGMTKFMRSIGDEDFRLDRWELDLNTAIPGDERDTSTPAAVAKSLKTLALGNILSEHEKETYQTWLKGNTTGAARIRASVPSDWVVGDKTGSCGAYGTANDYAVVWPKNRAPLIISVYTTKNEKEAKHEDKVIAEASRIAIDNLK
# Serratia marcescens = test: Antibacterial activity against Serratia marcescens expressing AmpC and Smel; assay type: functional
# Escherichia coli [5] = test: Antibacterial activity against Escherichia coli expressing TEM1 in iv dosed murine acute lethal infection model; assay type: functional
# Klebsiella aerogenes [6] = test: Antibacterial activity against Enterobacter aerogenes expressing AmpC in iv dosed murine acute lethal infection model; assay type: functional
# [7] = molecular target: Metallo-beta-lactamase type 2 (Bacteroides fragilis, UniProt P25910); test: Inhibition of Bacteroides fragilis CcrA
# Chain of Metallo-beta-lactamase type 2 (P25910 whole entry): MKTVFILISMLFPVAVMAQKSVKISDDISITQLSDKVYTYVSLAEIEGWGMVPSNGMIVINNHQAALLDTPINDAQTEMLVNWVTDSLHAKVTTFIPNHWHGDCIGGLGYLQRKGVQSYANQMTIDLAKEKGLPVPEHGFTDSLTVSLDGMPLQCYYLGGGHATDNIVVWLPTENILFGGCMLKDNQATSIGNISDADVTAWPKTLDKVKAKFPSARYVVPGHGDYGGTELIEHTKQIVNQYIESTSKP
# [8] = Inhibition of SHV1
# [9] = Inhibition of GC1
Compound,MIC (Enterobacter cloacae),ED50 (Klebsiella aerogenes [1]),IC50 (Beta-lactamase TEM),MIC [2],ED50 (Escherichia coli [3]),IC50 (Beta-lactamase),MIC (Pseudomonas aeruginosa),IC50 [4],MIC (Serratia marcescens),ED50 (Escherichia coli [5]),ED50 (Klebsiella aerogenes [6]),IC50 [7],IC50 [8],IC50 [9]
O=C([O-])C1=CS[C@@H]2/C(=C\c3cc4n(n3)CCCC4)C(=O)N12.[Na+],4 µg/mL,86 mg/kg,2 nM,2 µg/mL,28 mg/kg,3 nM,4 µg/mL,90 nM,1 µg/mL,,,,,
CN1CCn2cc(/C=C3/C(=O)N4C(C(=O)[O-])=CS[C@H]34)nc2C1.[Na+],1 µg/mL,,4 nM,16 µg/mL,,6 nM,4 µg/mL,22 nM,1 µg/mL,,,,,
"CCN1CCN(C(=O)NC(C(=O)N[C@@H]2C(=O)N3C2SC(C)(C)[C@@H]3C(=O)O)c2ccccc2)C(=O)C1=O (single isomer, unassigned) [PIPERACILLIN]",,,,,,,,,,165 mg/kg,421 mg/kg,,,
O=C([O-])C1=CS[C@@H]2/C(=C\c3cn4c(n3)CSCC4)C(=O)N12.[Na+],8 µg/mL,,3 nM,8 µg/mL,,2 nM,8 µg/mL,2300 nM,8 µg/mL,,,8 nM,,
O=C([O-])C1=CS[C@@H]2/C(=C\c3cc4n(n3)CCCO4)C(=O)N12.[Na+],4 µg/mL,,6 nM,4 µg/mL,90 mg/kg,5 nM,1 µg/mL,413 nM,1 µg/mL,,,140 nM,,
O=C([O-])C1=CS[C@@H]2/C(=C\c3cc4n(n3)CCNC4)C(=O)N12.[Na+],16 µg/mL,,1 nM,4 µg/mL,30 mg/kg,3 nM,0.5 µg/mL,123 nM,1 µg/mL,,,,,
O=C([O-])C1=CS[C@@H]2/C(=C/c3cn4c(n3)CSCC4)C(=O)N12.[Na+],32 µg/mL,,730 nM,64 µg/mL,,420 nM,64 µg/mL,> 10000 nM,4 µg/mL,,,110 nM,,
O=C([O-])C1=CS[C@@H]2/C(=C\c3cc4n(n3)CCOC4)C(=O)N12.[Na+],8 µg/mL,,4 nM,4 µg/mL,19 mg/kg,6 nM,2 µg/mL,20 nM,1 µg/mL,,,,,
O=C([O-])C1=CS[C@@H]2/C(=C/c3cn4c(n3)COCC4)C(=O)N12.[Na+],8 µg/mL,96 mg/kg,0.4 nM,2 µg/mL,23 mg/kg,5 nM,1 µg/mL,8 nM,1 µg/mL,,,66 nM,9 nM,6.2 nM
C[C@]1(Cn2ccnn2)[C@H](C(=O)O)N2C(=O)C[C@H]2S1(=O)=O [TAZOBACTAM],64 µg/mL,,,2 µg/mL,,,64 µg/mL,,1 µg/mL,,,,,
O=C([O-])C1=CS[C@@H]2/C(=C\c3cc4c(s3)CCN(Cc3cccnc3)C4)C(=O)N12.[Na+],64 µg/mL,,10 nM,32 µg/mL,,,64 µg/mL,40 nM,1 µg/mL,,,,,
O=C([O-])C1=CS[C@@H]2/C(=C\c3cc4n(n3)CCSC4)C(=O)N12.[Na+],8 µg/mL,123 mg/kg,,4 µg/mL,31 mg/kg,1 nM,2 µg/mL,18 nM,0.5 µg/mL,,,,,
O=C([O-])C1=CS[C@@H]2/C(=C\c3cc4n(n3)CCS(=O)(=O)C4)C(=O)N12.[Na+],16 µg/mL,,1 nM,4 µg/mL,64 mg/kg,2 nM,2 µg/mL,56 nM,1 µg/mL,,,43 nM,,
COc1ccc(CN2CCc3sc(/C=C4/C(=O)N5C(C(=O)[O-])=CS[C@H]45)cc3C2)cc1.[Na+],32 µg/mL,,2 nM,8 µg/mL,,15 nM,32 µg/mL,27 nM,1 µg/mL,,,78 nM,,
O=C([O-])C1=CS[C@@H]2/C(=C/c3cn4c(n3)CNCC4)C(=O)N12.[Na+],2 µg/mL,,5 nM,2 µg/mL,27 mg/kg,6 nM,16 µg/mL,28 nM,1 µg/mL,,,320 nM,,
